Data set [1] can be described thus: Dissolution of L-DOPA/carbidopa/ascorbic acid mixture in 0.2 N HCl. The format is physicochemical. The conditions noted are these: 200 mg L-DOPA, 50 mg carbidopa, 2.5 mg ascorbic acid in 3.5 ml of 0.2 N HCl, vortexed and sonicated. The method, then:
3.5 ml of 0.2 N HCl were added to 200 mg of L- DOPA, 50 mg of carbidopa and 2.5 mg of ascorbic acid and the mixture was vortexed and then sonicated. […] Then 1N HCl was added dropwise till all L-DOPA was dissolved.

Data set [2] can be described thus: Solubility of levodopa esters and carbidopa propyl ester in water acidified with acetic acid. The format is physicochemical. The method, then: Without limitation, in one example, substance 14 may include several levodopa esters, including the ethyl ester, propyl ester, isopropyl ester and butyl ester. In experiments, these esters were successfully dissolved in water to which was added acetic acid until attaining pH 5 (in some cases pH 4.5). […] The propyl ester of carbidopa was solubilized under the same conditions and a clear solution of 100 mg/ml of the carbidopa propyl ester was obtained. A mixture of each of the above levodopa esters with carbidopa propyl ester was prepared at a ratio of 4:1 (levodopa ester/carbidopa ester) and a clear solution was obtained. The solution of the mixture was stable for at least two weeks based on chromatographic determination of levodopa esters and carbidopa ester. The formulations of the levodopa esters together with carbidopa ester were prepared in diluted acetic acid and ascorbic acid at a pH 5. Each one of the above mentioned esters have good stability.

On to `N[C@@H](Cc1ccc(O)c(O)c1)C(=O)O` [L- DOPA, L-3,4-dihydroxyphenylalanine], for which the “dissolution of L-DOPA (in words)” value in data set [1] is “did not fully dissolve”.
With `CCCOC(=O)C(C)(Cc1ccc(O)c(O)c1)NN` (centres unmarked) [carbidopa propyl ester], the “soluble at a concentration of / clear solution obtained” value in data set [2] (water with acetic acid added until pH 5 (in some cases pH 4.5)) is at least 100 mg/mL.
In turn, `CC(C)OC(=O)[C@@H](N)Cc1ccc(O)c(O)c1` [isopropyl ester] showed a solubility in data set [2] (pH 5, aqueous buffer, thermodynamic from solid) of at least 400 mg/mL.
In the case of `CCOC(=O)[C@@H](N)Cc1ccc(O)c(O)c1` [ethyl ester], the “relative solubility among the levodopa esters (in words)” value in data set [2] is on record as “highest solubility”.
Turning to `CCCOC(=O)[C@@H](N)Cc1ccc(O)c(O)c1` [propyl ester], the “soluble at a concentration of / clear solution obtained” value in data set [2] (pH 5) was at least 400 mg/mL.
